Data on 19 compounds can be found in ChEMBL document CHEMBL1909046, “DrugMatrix in vitro pharmacology data”.

SMILES strings stand for the structures.

Data set [1] addresses T1, Vasoactive intestinal polypeptide receptor 1 (Homo sapiens, UniProt P32241).
T1 sequence (P32241 whole entry): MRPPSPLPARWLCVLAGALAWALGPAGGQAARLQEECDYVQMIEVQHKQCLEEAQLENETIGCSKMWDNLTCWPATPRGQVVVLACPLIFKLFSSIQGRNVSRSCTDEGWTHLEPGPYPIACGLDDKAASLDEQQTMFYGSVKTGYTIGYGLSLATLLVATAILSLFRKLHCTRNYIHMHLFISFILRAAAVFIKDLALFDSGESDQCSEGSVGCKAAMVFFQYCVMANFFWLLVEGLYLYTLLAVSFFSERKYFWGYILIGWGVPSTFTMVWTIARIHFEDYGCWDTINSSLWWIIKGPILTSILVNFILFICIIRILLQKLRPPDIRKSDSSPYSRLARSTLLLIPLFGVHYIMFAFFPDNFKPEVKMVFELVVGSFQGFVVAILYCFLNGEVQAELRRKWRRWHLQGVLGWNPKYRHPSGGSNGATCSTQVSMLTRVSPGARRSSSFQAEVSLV
The data set is classed as cell membranes, Membrane. The conditions noted are these: ht-29.

The target in the next data set is T2, Leukotriene C4 synthase (Cavia porcellus, UniProt A6XA80).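 Further: enzyme inhibition assay of leukotriene C4 synthase, using LTA4 as the substrate; in other assays of this panel Not Active means under 50% inhibition at 10 µM.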
T2 sequence (A6XA80 whole entry): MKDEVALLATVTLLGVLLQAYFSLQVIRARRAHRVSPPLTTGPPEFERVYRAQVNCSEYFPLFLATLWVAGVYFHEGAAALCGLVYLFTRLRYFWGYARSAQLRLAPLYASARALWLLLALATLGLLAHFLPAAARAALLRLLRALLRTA
As to the kind of experiment: biochemical. The format is tissue-based, Lung.

Data set [2] concerns the target T3, Cysteinyl leukotriene receptor 1 (Homo sapiens, UniProt Q9Y271). Further: in other assays of this panel Not Active means under 50% inhibition at 10 µM.
T3 sequence (Q9Y271 whole entry): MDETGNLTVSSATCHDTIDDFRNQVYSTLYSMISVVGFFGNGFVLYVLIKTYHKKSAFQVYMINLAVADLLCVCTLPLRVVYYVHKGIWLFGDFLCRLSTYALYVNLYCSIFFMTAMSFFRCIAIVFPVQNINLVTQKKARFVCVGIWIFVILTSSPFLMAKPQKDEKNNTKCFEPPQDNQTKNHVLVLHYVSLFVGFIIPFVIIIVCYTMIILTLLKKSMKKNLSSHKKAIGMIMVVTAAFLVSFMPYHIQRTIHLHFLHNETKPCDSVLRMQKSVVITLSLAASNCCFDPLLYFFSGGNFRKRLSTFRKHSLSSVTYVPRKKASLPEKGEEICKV
The data set is classed as cell membranes, CHO-K1, Membrane.

The next data set addresses Nitric oxide synthase 1 (Rattus norvegicus, UniProt P29476). The data set is classed as tissue-based, Cerebellum.
For data set [3], the target named is Protein kinase C alpha type (Homo sapiens, UniProt P17252). The format is cell-based. The conditions noted are these: sf9.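 Further: inhibition of PKCalpha kinase activity measured in an enzyme assay with histone as the phosphorylation substrate; in other assays of this panel Not Active means under 50% inhibition at 10 µM.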
Data set [4] has as its target Epidermal growth factor receptor (Homo sapiens, UniProt P00533). As to the kind of experiment: DRUGMATRIX: Protein Tyrosine Kinase, EGF Receptor enzyme inhibition (substrate: Poly(Glu:Tyr)). The data set is classed as cell-based, Insect cells. The conditions noted are these: Not Active = under 50% inhibition at 10 µM.
Data set [5] addresses Receptor tyrosine-protein kinase erbB-2 (Homo sapiens, UniProt P04626). The format is cell-based. The conditions noted are these: insect cells.
Another data set addresses Cytochrome P450 3A4 (Homo sapiens, UniProt P08684). The conditions noted are these: bti-tn-5b1-4.
Wherever Ki is given: in other assays of this panel Not Active means under 50% inhibition at 10 µM.

Nitric oxide synthase 1, sequence (P29476 whole entry): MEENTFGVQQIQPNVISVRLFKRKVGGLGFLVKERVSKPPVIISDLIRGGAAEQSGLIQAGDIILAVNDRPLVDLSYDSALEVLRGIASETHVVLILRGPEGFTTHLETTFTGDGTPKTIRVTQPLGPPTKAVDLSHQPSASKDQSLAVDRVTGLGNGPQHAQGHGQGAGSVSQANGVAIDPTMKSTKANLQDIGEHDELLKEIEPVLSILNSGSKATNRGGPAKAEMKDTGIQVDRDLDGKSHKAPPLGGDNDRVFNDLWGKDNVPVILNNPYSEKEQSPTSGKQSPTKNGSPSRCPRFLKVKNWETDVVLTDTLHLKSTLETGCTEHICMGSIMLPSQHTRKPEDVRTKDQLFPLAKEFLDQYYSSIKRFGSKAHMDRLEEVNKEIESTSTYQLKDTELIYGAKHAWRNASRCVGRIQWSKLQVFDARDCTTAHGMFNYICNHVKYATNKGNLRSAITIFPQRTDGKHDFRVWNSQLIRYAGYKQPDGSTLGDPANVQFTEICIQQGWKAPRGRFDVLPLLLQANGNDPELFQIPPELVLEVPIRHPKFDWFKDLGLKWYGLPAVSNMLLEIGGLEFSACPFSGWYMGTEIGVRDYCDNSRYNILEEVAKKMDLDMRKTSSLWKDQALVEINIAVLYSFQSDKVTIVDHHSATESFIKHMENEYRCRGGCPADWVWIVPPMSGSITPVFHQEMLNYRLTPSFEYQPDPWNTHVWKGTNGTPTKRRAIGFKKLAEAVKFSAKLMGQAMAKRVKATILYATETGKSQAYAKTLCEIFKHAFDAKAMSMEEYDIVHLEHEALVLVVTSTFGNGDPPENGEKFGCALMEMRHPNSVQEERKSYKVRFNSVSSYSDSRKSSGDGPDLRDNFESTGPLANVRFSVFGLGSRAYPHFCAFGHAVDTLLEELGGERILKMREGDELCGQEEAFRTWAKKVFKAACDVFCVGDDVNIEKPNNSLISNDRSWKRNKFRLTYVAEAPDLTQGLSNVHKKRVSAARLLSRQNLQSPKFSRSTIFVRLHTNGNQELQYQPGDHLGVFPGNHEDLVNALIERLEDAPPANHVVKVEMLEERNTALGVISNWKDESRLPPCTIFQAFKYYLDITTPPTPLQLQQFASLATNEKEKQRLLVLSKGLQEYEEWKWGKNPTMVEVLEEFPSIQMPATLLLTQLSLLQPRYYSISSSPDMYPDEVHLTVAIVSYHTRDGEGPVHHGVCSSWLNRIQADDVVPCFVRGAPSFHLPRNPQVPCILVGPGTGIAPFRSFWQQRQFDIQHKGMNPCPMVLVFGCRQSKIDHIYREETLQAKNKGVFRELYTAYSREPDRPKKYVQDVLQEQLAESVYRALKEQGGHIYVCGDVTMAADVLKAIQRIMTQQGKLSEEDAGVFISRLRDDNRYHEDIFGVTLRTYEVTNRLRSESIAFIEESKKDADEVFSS
Epidermal growth factor receptor, sequence (P00533 whole entry): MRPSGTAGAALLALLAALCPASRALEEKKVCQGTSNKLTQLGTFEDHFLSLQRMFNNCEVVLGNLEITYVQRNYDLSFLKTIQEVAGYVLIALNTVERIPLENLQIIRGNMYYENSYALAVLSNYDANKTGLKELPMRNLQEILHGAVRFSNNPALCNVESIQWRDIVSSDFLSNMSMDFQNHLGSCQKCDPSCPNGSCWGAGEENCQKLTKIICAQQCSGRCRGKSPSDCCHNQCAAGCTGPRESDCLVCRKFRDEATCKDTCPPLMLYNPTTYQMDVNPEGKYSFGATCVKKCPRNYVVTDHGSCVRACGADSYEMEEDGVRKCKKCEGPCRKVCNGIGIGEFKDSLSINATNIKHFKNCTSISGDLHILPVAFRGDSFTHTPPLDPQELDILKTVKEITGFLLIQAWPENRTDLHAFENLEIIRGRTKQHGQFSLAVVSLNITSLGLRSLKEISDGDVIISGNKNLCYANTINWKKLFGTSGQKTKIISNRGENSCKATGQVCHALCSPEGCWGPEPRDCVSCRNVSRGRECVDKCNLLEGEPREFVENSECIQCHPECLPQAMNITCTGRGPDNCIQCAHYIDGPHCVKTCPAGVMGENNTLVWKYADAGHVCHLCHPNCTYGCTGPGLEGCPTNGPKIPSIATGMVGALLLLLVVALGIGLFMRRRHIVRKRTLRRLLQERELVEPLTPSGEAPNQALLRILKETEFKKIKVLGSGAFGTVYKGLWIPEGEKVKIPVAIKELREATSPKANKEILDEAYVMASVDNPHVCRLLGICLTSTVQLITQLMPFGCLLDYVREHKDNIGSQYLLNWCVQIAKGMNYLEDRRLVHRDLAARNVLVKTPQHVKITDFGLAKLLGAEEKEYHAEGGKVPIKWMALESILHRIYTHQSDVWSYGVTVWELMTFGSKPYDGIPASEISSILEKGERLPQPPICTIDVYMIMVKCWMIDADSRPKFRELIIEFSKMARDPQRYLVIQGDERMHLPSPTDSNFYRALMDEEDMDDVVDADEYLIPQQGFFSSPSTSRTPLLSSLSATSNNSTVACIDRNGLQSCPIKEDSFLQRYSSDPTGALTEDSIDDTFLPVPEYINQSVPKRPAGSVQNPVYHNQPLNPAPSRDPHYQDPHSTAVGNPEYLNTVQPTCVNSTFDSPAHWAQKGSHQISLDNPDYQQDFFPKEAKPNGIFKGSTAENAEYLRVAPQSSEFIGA
Cytochrome P450 3A4, sequence (P08684 whole entry): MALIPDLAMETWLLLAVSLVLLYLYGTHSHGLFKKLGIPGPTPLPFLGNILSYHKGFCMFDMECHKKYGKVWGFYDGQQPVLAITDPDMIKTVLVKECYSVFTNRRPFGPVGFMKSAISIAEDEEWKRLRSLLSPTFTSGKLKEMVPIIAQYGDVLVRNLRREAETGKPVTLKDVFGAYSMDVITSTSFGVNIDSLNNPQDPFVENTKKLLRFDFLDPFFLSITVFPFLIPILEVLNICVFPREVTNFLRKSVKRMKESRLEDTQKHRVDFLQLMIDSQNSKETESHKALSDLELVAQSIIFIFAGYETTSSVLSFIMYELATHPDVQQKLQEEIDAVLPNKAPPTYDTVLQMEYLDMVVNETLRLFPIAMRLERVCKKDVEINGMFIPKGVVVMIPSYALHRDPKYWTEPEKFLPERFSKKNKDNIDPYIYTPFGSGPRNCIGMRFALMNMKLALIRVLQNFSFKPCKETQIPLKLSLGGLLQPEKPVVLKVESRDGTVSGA
Receptor tyrosine-protein kinase erbB-2, sequence (P04626 whole entry): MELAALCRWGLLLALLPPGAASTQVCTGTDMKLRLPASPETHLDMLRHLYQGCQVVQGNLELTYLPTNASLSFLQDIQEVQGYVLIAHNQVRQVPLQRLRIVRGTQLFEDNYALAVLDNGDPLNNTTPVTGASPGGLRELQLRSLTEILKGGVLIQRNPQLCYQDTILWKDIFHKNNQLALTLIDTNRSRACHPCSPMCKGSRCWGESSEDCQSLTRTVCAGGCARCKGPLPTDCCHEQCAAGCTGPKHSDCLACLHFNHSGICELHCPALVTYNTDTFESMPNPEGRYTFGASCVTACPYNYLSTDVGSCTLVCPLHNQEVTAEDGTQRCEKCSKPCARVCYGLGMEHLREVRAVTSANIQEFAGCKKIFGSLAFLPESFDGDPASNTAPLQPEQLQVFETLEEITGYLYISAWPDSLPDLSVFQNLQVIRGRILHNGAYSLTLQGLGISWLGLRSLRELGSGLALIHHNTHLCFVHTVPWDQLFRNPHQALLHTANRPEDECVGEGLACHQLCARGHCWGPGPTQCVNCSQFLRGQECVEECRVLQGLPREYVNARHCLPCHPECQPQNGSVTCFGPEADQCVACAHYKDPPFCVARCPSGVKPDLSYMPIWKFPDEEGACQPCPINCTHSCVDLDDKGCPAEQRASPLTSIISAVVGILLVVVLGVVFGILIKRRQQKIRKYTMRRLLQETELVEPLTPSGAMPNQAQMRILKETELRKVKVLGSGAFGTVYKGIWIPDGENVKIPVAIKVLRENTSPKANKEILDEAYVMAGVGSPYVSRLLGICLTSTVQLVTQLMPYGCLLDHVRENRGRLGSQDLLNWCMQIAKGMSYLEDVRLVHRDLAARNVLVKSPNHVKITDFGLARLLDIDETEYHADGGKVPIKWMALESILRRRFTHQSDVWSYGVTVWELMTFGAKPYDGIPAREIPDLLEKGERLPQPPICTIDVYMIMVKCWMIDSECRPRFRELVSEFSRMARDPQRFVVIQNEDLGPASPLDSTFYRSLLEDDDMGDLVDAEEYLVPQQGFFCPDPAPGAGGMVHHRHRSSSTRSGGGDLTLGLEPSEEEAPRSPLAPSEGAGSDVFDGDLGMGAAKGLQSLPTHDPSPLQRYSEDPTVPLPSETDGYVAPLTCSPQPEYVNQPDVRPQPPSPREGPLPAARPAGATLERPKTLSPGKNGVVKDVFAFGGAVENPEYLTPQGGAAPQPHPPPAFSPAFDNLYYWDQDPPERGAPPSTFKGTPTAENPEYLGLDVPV

As for `c1ccc(Cn2ccnc2)cc1`, the IC50 entry (in data set [1]; on Leukotriene C4 synthase; in data set [2] (cho-k1); at Nitric oxide synthase 1; in data set [3]; in data set [4] (insect cells)) was “Not Active” in each case. For the same compound, the IC50 result (in data set [5]; against Cytochrome P450 3A4) was “Not Active” each time. Besides, the Ki entry on Cytochrome P450 3A4 is “Not Active”.
In the case of `C[N+](C)(C)CCOP(=O)([O-])OC[C@H](O)CO`, the IC50 entry (in data set [1]; on Leukotriene C4 synthase; in data set [2] (cho-k1); on Nitric oxide synthase 1; in data set [3]; in data set [4] (insect cells)) was “Not Active” each time. Moreover, the IC50 result (in data set [5]; at Cytochrome P450 3A4) was “Not Active” in each case. Also, the inhibition constant (Ki) result at Cytochrome P450 3A4 is listed as “Not Active”.
Turning to `NC(=O)CN1CCCC1=O`, the IC50 entry (in data set [1]; at Leukotriene C4 synthase; in data set [2] (cho-k1); against Nitric oxide synthase 1; in data set [3]; in data set [4] (insect cells)) was “Not Active” in each case. Moreover, the IC50 result (in data set [5]; against Cytochrome P450 3A4) was “Not Active” each time. In addition, the Ki result at Cytochrome P450 3A4 is given as “Not Active”.
For `OC[C@H]1OC2C3[C@@H](CO)OC(O[C@H]4[C@H](O)[C@@H](O)[C@@H](O[C@H]5[C@H](O)[C@@H](O)[C@@H](O[C@H]6[C@H](O)[C@@H](O)[C@@H](O[C@H]7[C@H](O)[C@@H](O)[C@@H](O[C@H]8[C@H](O)[C@@H](O)[C@@H](O[C@H]9[C@H](O)[C@@H](O)C(OC1[C@H](O)[C@H]2O)O[C@@H]9CO)O[C@@H]8CO)O[C@@H]7CO)O[C@@H]6CO)O[C@@H]5CO)O[C@@H]4CO)[C@H](O)[C@H]3O`, the IC50 result (in data set [1]; against Leukotriene C4 synthase; in data set [2] (cho-k1); on Nitric oxide synthase 1; in data set [3]; in data set [4] (insect cells)) was “Not Active” throughout. Further, the IC50 entry (in data set [5]; on Cytochrome P450 3A4) was “Not Active” each time. Moreover, the Ki entry at Cytochrome P450 3A4 is “Not Active”.
Take `CN(CCOc1ccc(C[C@H](Nc2ccccc2C(=O)c2ccccc2)C(=O)O)cc1)c1ccccn1`: the IC50 result in data set [1] was “Not Active”; on Leukotriene C4 synthase it was “Not Active”; in data set [2] (read-out: IC50) it was 10.9 µM; against Nitric oxide synthase 1, “Not Active”; in data set [3] it was “Not Active”; in data set [4] (read-out: IC50), 10.9 µM. Further, the IC50 entry (in data set [5]; against Cytochrome P450 3A4) was “Not Active” each time. Moreover, the Ki in data set [2] (read-out: Ki) was 5.45 µM; on Cytochrome P450 3A4, “Not Active”.
Turning to `O=c1[nH]c2ccccc2c2ccccc12`, the IC50 result (in data set [1]; against Leukotriene C4 synthase; in data set [2] (cho-k1); against Nitric oxide synthase 1; in data set [3]; in data set [4] (insect cells)) was “Not Active” throughout. For the same compound, the half-inhibitory concentration (IC50) result (in data set [5]; against Cytochrome P450 3A4) was “Not Active” in each case. For the same compound, the Ki result on Cytochrome P450 3A4 is listed as “Not Active”.
On to `CO[C@H]1O[C@@H]2O[C@@]3(C)CC[C@H]4[C@H](C)CC[C@@H]([C@H]1C)[C@@]24OO3`, for which the IC50 result (in data set [1]; at Leukotriene C4 synthase; in data set [2] (cho-k1); at Nitric oxide synthase 1; in data set [3]; in data set [4] (insect cells)) was “Not Active” each time. Moreover, the IC50 result (in data set [5]; at Cytochrome P450 3A4) was “Not Active” in each case. In addition, the Ki entry at Cytochrome P450 3A4 is given as “Not Active”.
In the case of `Nc1ccc(Cc2ccc(N)cc2)cc1`, the IC50 entry (in data set [1]; at Leukotriene C4 synthase; in data set [2] (cho-k1); at Nitric oxide synthase 1; in data set [3]; in data set [4] (insect cells)) was “Not Active” in each case. Also, the IC50 entry (in data set [5]; against Cytochrome P450 3A4) was “Not Active” throughout. Moreover, the Ki result at Cytochrome P450 3A4 is reported as “Not Active”.
Consider `C=C(Cl)Cl` [1,1-DICHLOROETHENE], for which the IC50 entry (in data set [1]; against Leukotriene C4 synthase; in data set [2] (cho-k1); against Nitric oxide synthase 1; in data set [3]; in data set [4] (insect cells)) was “Not Active” throughout. Also, the IC50 entry (in data set [5]; on Cytochrome P450 3A4) was “Not Active” throughout. Moreover, on Cytochrome P450 3A4, the Ki result is “Not Active”.
Take `CC(=O)Nc1ccc2c(c1)Cc1ccccc1-2` [2-ACETYLAMINOFLUORENE]: the IC50 result (in data set [1]; on Leukotriene C4 synthase; in data set [2] (cho-k1); against Nitric oxide synthase 1; in data set [3]; in data set [4] (insect cells)) was “Not Active” each time. Further, the IC50 result (in data set [5]; at Cytochrome P450 3A4) was “Not Active” throughout. The inhibition constant Ki entry on Cytochrome P450 3A4 is given as “Not Active”.
As for `CC(C)(C#N)c1cc(Cn2cncn2)cc(C(C)(C)C#N)c1` [ANASTROZOLE], the IC50 entry (in data set [1]; at Leukotriene C4 synthase; in data set [2] (cho-k1); against Nitric oxide synthase 1; in data set [3]; in data set [4] (insect cells)) was “Not Active” each time. The IC50 result in data set [5] is “Not Active”.
As to `CC(C)NCC(O)COc1ccc(CC(N)=O)cc1` (centres undefined) [ATENOLOL], the IC50 entry (in data set [1]; on Leukotriene C4 synthase; in data set [2] (cho-k1); against Nitric oxide synthase 1; in data set [3]; in data set [4] (insect cells)) was “Not Active” throughout. For the same compound, in data set [5], the IC50 entry is recorded as “Not Active”.
For the compound `C[C@H]1C[C@H]2[C@@H]3CCC4=CC(=O)C=C[C@]4(C)[C@@]3(F)[C@@H](O)C[C@]2(C)[C@@]1(O)C(=O)CO` [BETAMETHASONE], the IC50 entry (in data set [1]; at Leukotriene C4 synthase; in data set [2] (cho-k1); against Nitric oxide synthase 1; in data set [3]; in data set [4] (insect cells)) was “Not Active” in each case. Further, the IC50 result in data set [5] is “Not Active”.
Take `NS(=O)(=O)c1cc(C(=O)O)c(NCc2ccco2)cc1Cl` [FUROSEMIDE]: the IC50 result (in data set [1]; at Leukotriene C4 synthase; in data set [2] (cho-k1); against Nitric oxide synthase 1; in data set [3]; in data set [4] (insect cells)) was “Not Active” each time. For the same compound, the IC50 result in data set [5] is given as “Not Active”.
For `COc1ccc(Cl)cc1C(=O)NCCc1ccc(S(=O)(=O)NC(=O)NC2CCCCC2)cc1` [GLYBURIDE], the IC50 result (in data set [1]; against Leukotriene C4 synthase; in data set [2] (cho-k1); on Nitric oxide synthase 1; in data set [3]; in data set [4] (insect cells)) was “Not Active” in each case. For the same compound, in data set [5], the IC50 entry is “Not Active”.
As for `O=C(O)CNCP(=O)(O)O` [GLYPHOSATE], the IC50 result (in data set [1]; on Leukotriene C4 synthase; in data set [2] (cho-k1); against Nitric oxide synthase 1; in data set [3]; in data set [4] (insect cells)) was “Not Active” throughout. For the same compound, the IC50 entry in data set [5] is listed as “Not Active”.
Consider `CCN(CCO)CCCC(C)Nc1ccnc2cc(Cl)ccc12` (centres undefined) [HYDROXYCHLOROQUINE], for which the IC50 entry (in data set [1]; on Leukotriene C4 synthase; in data set [2] (cho-k1); against Nitric oxide synthase 1; in data set [3]; in data set [4] (insect cells)) was “Not Active” each time. Moreover, in data set [5], the IC50 result is “Not Active”.
As to `C#C[C@]1(O)CC[C@H]2[C@@H]3CCC4=CC(=O)CC[C@@H]4[C@H]3CC[C@@]21C` [NORETHINDRONE], the IC50 result (in data set [1]; at Leukotriene C4 synthase; in data set [2] (cho-k1); on Nitric oxide synthase 1; in data set [3]; in data set [4] (insect cells)) was “Not Active” each time. Further, the IC50 entry in data set [5] was “Not Active”.
Regarding `COc1cc([C@@H]2c3cc4c(cc3[C@H](O)[C@H]3COC(=O)[C@H]23)OCO4)cc(OC)c1OC` [PODOFILOX], the IC50 result (in data set [1]; against Leukotriene C4 synthase; in data set [2] (cho-k1); at Nitric oxide synthase 1; in data set [3]; in data set [4] (insect cells)) was “Not Active” in each case. Moreover, in data set [5], the IC50 result was “Not Active”.

By IC50 is commonly meant the concentration needed to halve the response being measured. In general, Ki refers to a measure of affinity in units of concentration, obtained from inhibition or displacement.
